Laboratory results reported in patent publication US6946260B2, “Allergen/inflammatory testing and diagnosis” (Euro/DPC Limited, priority 1992, dated 2005).

Columns and labels:
Assay type in all cases: cell-based, rat
[1] = tested on: RBL-2H3 cell-line transfected with the α-chain of the human high-affinity receptor for IgE; test: Attenuation of antigen- or irritant-induced mediator release by antagonists; settings: competing sugars; lectins of e.g. pollen or bacterial and viral agglutinins
Experimental: For example, where a composition was being tested or developed for its ability to attenuate an IgE mediated response such as asthma or hay fever, antigen specific IgE would be present, for example, in the form of human serum.
Following incubation, cells were washed (2×1 ml) with buffer A (120 mM NaC1, 5 mM KC1, 25 mM PIPES, 1 mM CaC12, 0.04 mM MgC12, 5.6 mM glucose, 0.1% BSA, pH7.4) and pre-incubated for a further period of 10 minutes at 37 degrees C. with buffer A (0.5 ml) which was removed before challenge with buffer A (0.4 ml) supplemented with a pre-selected antigen (in an amount as afore described) and the therapeutic composition or the antagonist.
(§1) For the determination of antigen induced [^3H]-5HT release, the well was incubated at 37 degrees C. for 15 minutes, cooled on ice, supernatant was then removed and spun at 2000 g (1 minute) before liquid scintillation counting (2 minutes). The percentage release of [^3H]-5HT was calculated by the method of Siraganian and Hook.

[2] = tested on: RBL-2H3 cell-line transfected with the α-chain of the human high-affinity receptor for IgE; test: Irritant/antigen-induced mediator release in the absence of IgE sensitization; settings: control, no sensitizing serum; same antigen concentrations
Experimental: Parent RBL-2H3 cells or clones transfected with the α-chain of the human high-affinity receptor complex were plated out in 24-well plates at 2×10^5 cells/well as described previously in the citations referred to on Page 2 of this application. For the determination of antigen-induced mediator release, plates were incubated at 37 degrees C. for 15 minutes, cooled on ice, the supernatant was removed, spun at […] (1 minute) before liquid scintillation counting to measure [^3H]-5-hydroxytryptamine (5-HT release. The ImmunoTech histamine enzyme immunoassay was used to quantify histamine release, and hydrolysis of toluene sulphonyl methyl ester was employed to monitor protease release (please see Wilson, A. P. M., Pullar, C. E., Camp, A. M., and Helm B. A., Human IgE Mediates Stimulus Secretion Coupling in Rat Basophilic Leukemia Cells Transfected with the Alpha Chain of the Human High-Affinity Receptor, European Journal of Immunology, 23:240-244, 1993, or alternatively, please see other references cited on Page 2 of this application). […]
For the determination of irritant or antigen induced [^3H]-5HT release, the well was incubated at 37 degrees C. for 15 minutes, cooled in ice, supernatant was then removed and spun at 2000 g (1 minute) before liquid scintillation counting (2 minutes). The percentage release of [^3H]-5HT was calculated by the method of Siraganian and Hook. […]

[3] = tested on: RBL-2H3 (H 2/2/C) transfectants; test: Antigen-induced mediator release after sensitization with serum from a bee-venom-allergic individual; settings: cells sensitized with serum (1:10) of bee venom sensitive individual (EC), increasing antigen concentrations
Experimental: Triggering of RBL-2H3 (H 2/2/C) transfectants following sensitization with serum from a bee-venom-allergic individual. Cells were incubated with the serum (1:10), Dex (10-^6M) and [^3H]-5HT. After washing and pre-incubation the cells were challenged with a range of concentrations of purified bee venom phospholipase A2 (PLA2). The percentage release of [^3H]-5HT (●) and β-hexosaminidase (∘) were determined; data were corrected for background and normalized with respect to values obtained for triggering with hIgE-DNP (1 μg/mL and NIP-HSA (100 ng/mL).
Transfected RBL-2H3 clones were incubated for 24 hours with or without serum (1:10 dilution) from a bee venom sensitive individual (EC) in the presence of 10-^6M dexamethazone and [^3H]-5-hydroxytryptamine. […]
[^3H]-5-Hydroxytyptamine was measured after a 15 minutes incubation period, release was corrected for background and expressed relative to the total [^3H]-5-hydroxytryptamine incorporated. […]
as §1, with “Hook (Manual of Clinical Immunology of the American Society for Microbiology Washington D.C., 1980 Page 808).” for “Hook.”

| Molecule | inhibition of triggering of mast cells and basophils by lectins [1] | other results |
| --- | --- | --- |
| C[C@@H]1O[C@@H](O)[C@@H](O)[C@H](O)[C@@H]1O [a-L-fucose] | can inhibit the triggering of mast cells and basophils |  |
| OC[C@H]1O[C@@H](O)[C@H](O)[C@@H](O)[C@H]1O [b-D-galactose] | can inhibit the triggering of mast cells and basophils |  |
| CC(=O)N[C@H]1[C@H]([C@H](O)[C@H](O)CO)OC(O)(C(=O)O)C[C@@H]1O (stereo partly drawn) [N-acetyl neuraminic acid] | can inhibit the triggering of mast cells and basophils |  |
| bee venom phospholipase A2 |  | mediator release dose response in non-sensitized cells [2]: mediator release increased in response to antigen concentration; mediator release ([3H]-5HT, β-hexosaminidase) dose response in sensitized cells [3]: typical bell-shaped dose response pattern; mediator release ([3H]-5HT, β-hexosaminidase) dose response in sensitized cells ([3]; listed as bee venom PLA2): typical bell-shaped dose response curve |
| OC[C@H]1O[C@@H](O[C@H]2[C@H](O)[C@@H](O)C(O)O[C@@H]2CO)[C@H](O)[C@@H](O)[C@H]1O (stereo partly drawn) [lactose] | can inhibit the triggering of mast cells and basophils |  |
| CO[C@H]1O[C@H](CO)[C@@H](O)[C@H](O)[C@@H]1O [a-methyl-mannoside] | can inhibit the triggering of mast cells and basophils |  |
| CC(=O)N[C@H]1C(O)O[C@H](CO)[C@@H](O)[C@@H]1O (stereo partly drawn) [N-acetyl-D-glucosamin] | can inhibit the triggering of mast cells and basophils |  |
